The values below come from patent US20060281735A1, “Antipsychotic combination therapies and compositions of an alpha-2 adrenergic receptor antagonist and an atypical antipsychotic neuroleptic” (priority 2002, published 2006).

Test [1] has as its system α2-adrenergic receptor versus D2 receptor. As to conditions: literature; cited from earlier work.
Another test deals with T1, D2 dopamine receptor (Homo sapiens, UniProt P14416).
T1 construct: In vivo D2 occupancy can be determined using finctional brain imaging technologies such as Positron Emission Tomography (PET); host or cells: brain of treated patients, in vivo imaging
As to conditions: at effective antipsychotic treatment; literature; cited from earlier work.

A further test deals with Wistar rats. The experiment in a line: Conditioned avoidance response (CAR) behavior in rats. The format is in vivo. Conditions: rat CAR; 2.5 mg/kg with idazoxan versus about 5 mg/kg alone.
The test system of the next test is α2 autoreceptors. As to conditions: presynaptic level; antagonism of clonidine; cited from earlier work.
A further test deals with α2 adrenoreceptors. Conditions: binding studies; cited from earlier work.
A further test concerns the target α2 receptor. Conditions: idazoxan; stated with Litman et al. 1996; cited from earlier work.

T1 sequence (P14416 whole entry): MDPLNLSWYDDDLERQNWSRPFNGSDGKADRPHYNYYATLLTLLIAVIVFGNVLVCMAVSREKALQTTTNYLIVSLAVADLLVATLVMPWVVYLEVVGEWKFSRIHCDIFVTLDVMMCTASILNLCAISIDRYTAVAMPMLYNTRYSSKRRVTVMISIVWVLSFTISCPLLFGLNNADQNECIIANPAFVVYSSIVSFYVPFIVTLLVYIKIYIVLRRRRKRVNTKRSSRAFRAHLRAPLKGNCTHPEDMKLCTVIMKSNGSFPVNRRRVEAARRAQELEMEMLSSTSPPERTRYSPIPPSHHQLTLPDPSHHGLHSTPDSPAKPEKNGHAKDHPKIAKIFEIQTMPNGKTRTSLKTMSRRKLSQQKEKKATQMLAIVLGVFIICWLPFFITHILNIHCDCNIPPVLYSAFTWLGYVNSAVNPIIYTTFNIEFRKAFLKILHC
Description for Wistar rats: Adult, male Wistar rats, 200-225 g (B & K Universal, Sollentuna, Sweden) were used. The animals were housed under standard laboratory conditions, on a reversed light/dark cycle (lights off 08:00 am), and allowed 1 week of adaptation to laboratory conditions before being used in experiments. Food and water were available ad libitum.
Rats were trained and tested in a conventional, manually operated two-way active avoidance (shuttlebox) apparatus connected to a high resistance power supply. The box was divided into two compartments of equal size by a partition with one opening. Upon presentation of the 80 dB white noise conditioned stimulus (CS), the animals had 10 seconds to move from one compartment of the shuttlebox into the other. If the rat remained in the same compartment for more than 10 seconds, an intermittent electric shock (approx. 0.2 mA of 0.5-sec duration; intershock interval 2.5 sec), the unconditioned stimulus (UCS), was presented in the grid floor until an escape was performed. […] Intertrial intervals varied at random between 20 and 40 seconds. The following variables were recorded: avoidance (response to CS within 10 sec); escape (response to CS+UCS); escape failures (failure to respond); and intertrial crosses. The animals were trained for 3 consecutive days. Training sessions were run over 15 minutes. […]

In the case of `OCCOCCN1CCN(C2=Nc3ccccc3Sc3ccccc32)CC1` [quetiapine], the “Fold less affinity for the α2 adrenergic receptor than for the dopamine D2 receptor” value (from here on “Fold less affinity”) in test [1] is on record as 6-16 fold.
`Cc1nc2n(c(=O)c1CCN1CCC(c3noc4cc(F)ccc34)CC1)CCCC2` [risperidone]: the “In vivo D2 occupancy” value at D2 dopamine receptor is given as not below 70%. Also, the “Fold less affinity” value in test [1] is given as 2-16 fold.
Regarding `Cc1cc2c(s1)Nc1ccccc1N=C2N1CCN(C)CC1` [olanzapine], the “Reduction of olanzapine dose required for effective antipsychotic effect through adjunct idazoxan” value in the test with Wistar rats is approximately 50%.
For the molecule `c1ccc2c(c1)OCC(C1=NCCN1)O2` (single isomer, unassigned; (+)) [(+)-idazoxan], the “Affinity towards the α2 autoreceptors, times higher than (−) idazoxan” value in the test with α2 autoreceptors is reported as 40 times. The “Potency in inhibiting p-[3H]aminoclonidine binding, times more potent than the other enantiomer” value in the test with α2 adrenoreceptors was 7-8 times.
Regarding `O=C1Cc2cc(CCN3CCN(c4nsc5ccccc45)CC3)c(Cl)cc2N1` [ziprasidone], in test [1], the “Fold less affinity” value is 100 fold.
As for `c1ccc2c(c1)OCC(C1=NCCN1)O2` (racemic) [idazoxan, ±-2-(1,4-benzodioxan-2-yl)-d-imidazoline], the inhibition constant (Ki) (in general, a dissociation constant, usually derived from enzyme kinetics or from competition with a known ligand) on α2 receptor is approximately 30 nM.
